Columns and labels:
[1] = compound: CC(=O)c1c(C)c2cnc(Nc3ccc(N4CCNCC4)cn3)nc2n(C2CCCC2)c1=O; assay: GR value, 72 h; higher = faster growth (1 = untreated, <0 = killing);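 also: breast cancer and non-malignant breast epithelial lines, nine half-log doses, viable cells counted by Hoechst and LIVE/DEAD dye imaging versus time-zero plates and DMSO controls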
[2] = compound: CN(C)C/C=C/C(=O)Nc1ccc(C(=O)N2CCC[C@@H](Nc3ncc(Cl)c(-c4c[nH]c5ccccc45)n3)C2)cc1 [THZ531]; assay: as above
[3] = compound: T1, CN(C)C/C=C/C(=O)Nc1ccc(C(=O)Nc2cccc(Nc3ncc(Cl)c(-c4c[nH]c5ccccc45)n3)c2)cc1 [THZ1]; assay: as above
[4] = compound: T2, CN1CC[C@H](c2c(O)cc(O)c3c(=O)cc(-c4ccccc4Cl)oc23)[C@H](O)C1 [Flavopiridol]; assay: as above
[5] = compound: CCOc1cc2ncc(C#N)c(Nc3ccc(OCc4ccccn4)c(Cl)c3)c2cc1NC(=O)/C=C/CN(C)C [Neratinib/HKI272]; assay: increase in dead-cell fraction, 72 h; higher = more death;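 also: breast cancer cell lines in 384-well plates, stained with Hoechst plus LIVE/DEAD far red dye and imaged, cells above an LDR intensity threshold counted dead, Hoechst-negative corpses included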
[6] = compound: CC(=O)c1c(C)c2cnc(Nc3ccc(N4CCN(CCOCCOCCOCCNC(=O)COc5cccc6c5C(=O)N(C5CCC(=O)NC5=O)C6=O)CC4)cn3)nc2n(C2CCCC2)c1=O [BSJ-03-123]; assay: as above
[7] = compound: CC(=O)c1c(C)c2cnc(Nc3ccc(N4CCNCC4)cn3)nc2n(C2CCCC2)c1=O; assay: as above
[8] = compound: CCN1CCN(Cc2ccc(Nc3ncc(F)c(-c4cc(F)c5nc(C)n(C(C)C)c5c4)n3)nc2)CC1; assay: as above
[9] = compound: T1, THZ1; assay: as above
[10] = compound: CN(C)C(=O)c1cc2cnc(Nc3ccc(N4CCNCC4)cn3)nc2n1C1CCCC1 [LEE011/Ribociclib]; assay: as above
[11] = compound: CCc1cnn2c(NCc3ccc[n+]([O-])c3)cc(N3CCCC[C@H]3CCO)nc12; assay: as above
[12] = compound: T2, Flavopiridol; assay: as above

UACC812
GR value ([1]; 0.0003162 µM): 1.11 GR | GR value ([1]; 0.001 µM): 0.781 GR | GR value ([1]; 0.003162 µM): 0.839 GR | GR value ([1]; 0.01 µM): 0.637 GR | GR value ([1]; 0.03162 µM): 0.409 GR | GR value ([1]; 0.1 µM): 0.173 GR | GR value ([1]; 0.3162 µM): 0.0192 GR | GR value ([1]; 1 µM): -0.127 GR | GR value ([1]; 3.162 µM): -0.162 GR | GR value ([2]; 0.0001 µM): 0.819 GR | GR value ([2]; 0.0003162 µM): 1.04 GR | GR value ([2]; 0.001 µM): 0.807 GR | GR value ([2]; 0.003162 µM): 0.754 GR | GR value ([2]; 0.01 µM): 0.851 GR | GR value ([2]; 0.03162 µM): 0.958 GR | GR value ([2]; 0.1 µM): 0.942 GR | GR value ([2]; 0.3162 µM): 1.17 GR | GR value ([2]; 1 µM): 0.547 GR | GR value ([3]; 0.0001 µM): 1.23 GR | GR value ([3]; 0.0003162 µM): 1.05 GR | GR value ([3]; 0.001 µM): 1.18 GR | GR value ([3]; 0.003162 µM): 0.811 GR | GR value ([3]; 0.01 µM): 1.1 GR | GR value ([3]; 0.03162 µM): 0.842 GR | GR value ([3]; 0.1 µM): 1.1 GR | GR value ([3]; 0.3162 µM): 1.01 GR | GR value ([3]; 1 µM): -0.293 GR | GR value ([4]; 0.0001 µM): 0.797 GR | GR value ([4]; 0.0003162 µM): 1.15 GR | GR value ([4]; 0.001 µM): 0.734 GR | GR value ([4]; 0.003162 µM): 0.914 GR | GR value ([4]; 0.01 µM): 0.878 GR | GR value ([4]; 0.03162 µM): 0.785 GR | GR value ([4]; 0.1 µM): 0.457 GR | GR value ([4]; 0.3162 µM): -0.332 GR | GR value ([4]; 1 µM): -0.812 GR | increase in dead-cell fraction ([5]; 0.0003162 µM): -0.0016 | increase in dead-cell fraction ([5]; 0.001 µM): 0.0009 | increase in dead-cell fraction ([5]; 0.003162 µM): 0.0017 | increase in dead-cell fraction ([5]; 0.01 µM): 0.0044 | increase in dead-cell fraction ([5]; 0.03162 µM): 0.0198 | increase in dead-cell fraction ([5]; 0.1 µM): 0.0311 | increase in dead-cell fraction ([5]; 0.3162 µM): 0.0666 | increase in dead-cell fraction ([5]; 1 µM): 0.0547 | increase in dead-cell fraction ([5]; 3.162 µM): 0.114 | increase in dead-cell fraction ([6]; 0.001 µM): 0.0002 | increase in dead-cell fraction ([6]; 0.003162 µM): 0.0007 | increase in dead-cell fraction ([6]; 0.01 µM): 0.0021 | increase in dead-cell fraction ([6]; 0.03162 µM): 0.0004 | increase in dead-cell fraction ([6]; 0.1 µM): 0.0012 | increase in dead-cell fraction ([6]; 0.3162 µM): -0.0006 | increase in dead-cell fraction ([6]; 1 µM): -0.0002 | increase in dead-cell fraction ([6]; 3.162 µM): 0.0096 | increase in dead-cell fraction ([6]; 10 µM): 0.0406 | increase in dead-cell fraction ([7]; 0.0003162 µM): -0.0049 | increase in dead-cell fraction ([7]; 0.001 µM): 0.0002 | increase in dead-cell fraction ([7]; 0.003162 µM): -0.0042 | increase in dead-cell fraction ([7]; 0.01 µM): 0.005 | increase in dead-cell fraction ([7]; 0.03162 µM): 0.0019 | increase in dead-cell fraction ([7]; 0.1 µM): 0.0099 | increase in dead-cell fraction ([7]; 0.3162 µM): 0.0073 | increase in dead-cell fraction ([7]; 1 µM): 0.0136 | increase in dead-cell fraction ([7]; 3.162 µM): 0.0146 | increase in dead-cell fraction ([8]; 0.001 µM): -0.0019 | increase in dead-cell fraction ([8]; 0.003162 µM): 0.0028 | increase in dead-cell fraction ([8]; 0.01 µM): 0.0044 | increase in dead-cell fraction ([8]; 0.03162 µM): 0.0186 | increase in dead-cell fraction ([8]; 0.1 µM): 0.0202 | increase in dead-cell fraction ([8]; 0.3162 µM): 0.0231 | increase in dead-cell fraction ([8]; 1 µM): 0.0272 | increase in dead-cell fraction ([8]; 3.162 µM): 0.0144 | increase in dead-cell fraction ([8]; 10 µM): 0.073 | increase in dead-cell fraction ([9]; 0.0001 µM): -0.003 | increase in dead-cell fraction ([9]; 0.0003162 µM): 0.0027 | increase in dead-cell fraction ([9]; 0.001 µM): -0.0004 | increase in dead-cell fraction ([9]; 0.003162 µM): 0.0019 | increase in dead-cell fraction ([9]; 0.01 µM): 0.0019 | increase in dead-cell fraction ([9]; 0.03162 µM): -0.0013 | increase in dead-cell fraction ([9]; 0.1 µM): -0.0018 | increase in dead-cell fraction ([9]; 0.3162 µM): 0.0001 | increase in dead-cell fraction ([9]; 1 µM): 0.0639 | increase in dead-cell fraction ([10]; 0.001 µM): 0.0064 | increase in dead-cell fraction ([10]; 0.003162 µM): 0.0022 | increase in dead-cell fraction ([10]; 0.01 µM): 0.0036 | increase in dead-cell fraction ([10]; 0.03162 µM): 0.0049 | increase in dead-cell fraction ([10]; 0.1 µM): 0.0102 | increase in dead-cell fraction ([10]; 0.3162 µM): 0.0156 | increase in dead-cell fraction ([10]; 1 µM): 0.0075 | increase in dead-cell fraction ([10]; 3.162 µM): 0.017 | increase in dead-cell fraction ([10]; 10 µM): 0.0125 | increase in dead-cell fraction ([11]; 0.0001 µM): -0.0048 | increase in dead-cell fraction ([11]; 0.0003162 µM): -0.0023 | increase in dead-cell fraction ([11]; 0.001 µM): -0.0065 | increase in dead-cell fraction ([11]; 0.003162 µM): -0.0073 | increase in dead-cell fraction ([11]; 0.01 µM): -0.007 | increase in dead-cell fraction ([11]; 0.03162 µM): 0.0324 | increase in dead-cell fraction ([11]; 0.1 µM): 0.478 | increase in dead-cell fraction ([11]; 0.3162 µM): 0.529 | increase in dead-cell fraction ([11]; 1 µM): 0.523 | increase in dead-cell fraction ([12]; 0.0001 µM): 0.0015 | increase in dead-cell fraction ([12]; 0.0003162 µM): -0.0016 | increase in dead-cell fraction ([12]; 0.001 µM): 0.0074 | increase in dead-cell fraction ([12]; 0.003162 µM): 0.0022 | increase in dead-cell fraction ([12]; 0.01 µM): -0.0031 | increase in dead-cell fraction ([12]; 0.03162 µM): -0.0033 | increase in dead-cell fraction ([12]; 0.1 µM): 0.0023 | increase in dead-cell fraction ([12]; 0.3162 µM): 0.0692 | increase in dead-cell fraction ([12]; 1 µM): 0.403

Reference: the supplement of paper PMC9663587
